Source: the NIST ThermoML archive (doi:10.1016/j.fluid.2013.03.001)

How the values were obtained:
[1] = 101.33 kPa, Liquid; for viscosity: Concentric cylinders viscometry; for mass density: Vibrating tube method
[2] = molar heat capacity at constant pressure; details: 101.33 kPa, Liquid, Small sample (50 mg) DSC

CCCCn1cc[n+](C)c1.[Cl][Fe-]([Cl])([Cl])[Cl] [1-butyl-3-methylimidazolium tetrachloroferrate]
Details	mass density [kg/m3]	molar heat capacity at constant pressure [J/K/mol]	viscosity [mPa·s]
[1], 278.15 K	–	–	103.3
[1], 283.15 K	–	–	79.5
[1], 288.15 K	–	–	62.6
[1], 293.15 K	1370	–	50.2
[1], 294.15 K	1369.2	–	–
[1], 295.15 K	1368.3	–	–
[1], 296.15 K	1367.5	–	–
[1], 297.15 K	1366.7	–	–
[1], 298.15 K	1365.8	–	41
[1], 299.15 K	1365	–	–
[1], 300.15 K	1364.2	–	–
[1], 301.15 K	1363.3	–	–
[1], 302.15 K	1362.5	–	–
[1], 303.15 K	1361.7	–	33.9
[1], 304.15 K	1360.9	–	–
[1], 305.15 K	1360.1	–	–
[1], 306.15 K	1359.2	–	–
[1], 307.15 K	1358.4	–	–
[1], 308.15 K	1357.6	–	28.5
[1], 309.15 K	1356.8	–	–
[1], 310.15 K	1356	–	–
[1], 311.15 K	1355.1	–	–
[1], 312.15 K	1354.3	–	–
[1], 313.15 K	1353.5	–	24.2
[1], 314.15 K	1352.7	–	–
[1], 315.15 K	1351.9	–	–
[1], 316.15 K	1351.1	–	–
[1], 317.15 K	1350.3	–	–
[1], 318.15 K	1349.5	–	20.8
[1], 319.15 K	1348.7	–	–
[1], 320.15 K	1347.8	–	–
[1], 321.15 K	1347	–	–
[1], 322.15 K	1346.2	–	–
[1], 323.15 K	1345.4	–	18.1
[1], 324.15 K	1344.6	–	–
[1], 325.15 K	1343.8	–	–
[1], 326.15 K	1343	–	–
[1], 327.15 K	1342.2	–	–
[1], 328.15 K	1341.4	–	15.8
[1], 329.15 K	1340.6	–	–
[1], 330.15 K	1339.8	–	–
[1], 331.15 K	1339	–	–
[1], 332.15 K	1338.2	–	–
[1], 333.15 K	1337.4	–	13.9
[1], 334.15 K	1336.6	–	–
[1], 335.15 K	1335.9	–	–
[1], 336.15 K	1335.1	–	–
[1], 337.15 K	1334.3	–	–
[1], 338.15 K	1333.5	–	12.4
[1], 339.15 K	1332.7	–	–
[1], 340.15 K	1331.9	–	–
[1], 341.15 K	1331.1	–	–
[1], 342.15 K	1330.3	–	–
[1], 343.15 K	1329.5	–	11.1
[1], 344.15 K	1328.7	–	–
[1], 345.15 K	1328	–	–
[1], 346.15 K	1327.2	–	–
[1], 347.15 K	1326.4	–	–
[1], 348.15 K	1325.6	–	10
[1], 349.15 K	1324.8	–	–
[1], 350.15 K	1324	–	–
[1], 351.15 K	1323.3	–	–
[1], 352.15 K	1322.5	–	–
[1], 353.15 K	1321.7	–	9
[1], 354.15 K	1320.9	–	–
[1], 355.15 K	1320.1	–	–
[1], 356.15 K	1319.4	–	–
[1], 357.15 K	1318.6	–	–
[1], 358.15 K	1317.8	–	8.2
[1], 359.15 K	1317	–	–
[1], 360.15 K	1316.3	–	–
[1], 361.15 K	1315.5	–	–
[1], 362.15 K	1314.7	–	–
[1], 363.15 K	1313.9	–	7.5
[1], 368.15 K	–	–	6.9
[1], 373.15 K	–	–	6.3
[2], 308.16 K	–	436.39	–
[2], 313.16 K	–	446.09	–
[2], 318.16 K	–	446.39	–
[2], 323.16 K	–	447.13	–
[2], 328.22 K	–	449.63	–
[2], 333.22 K	–	451.03	–
[2], 338.19 K	–	452.53	–
[2], 343.18 K	–	456.2	–
[2], 348.25 K	–	457.4	–
[2], 353.18 K	–	457.95	–
[2], 358.25 K	–	459.31	–
[2], 363.18 K	–	460.92	–
[2], 368.17 K	–	461.57	–
[2], 373.21 K	–	462.88	–
[2], 378.2 K	–	463.64	–
[2], 383.17 K	–	465.82	–
[2], 388.2 K	–	465.66	–
[2], 393.17 K	–	466.11	–
[2], 398.2 K	–	467.83	–
[2], 403.2 K	–	469.12	–
[2], 408.16 K	–	469.7	–
[2], 413.19 K	–	469.42	–
[2], 418.19 K	–	471.44	–
[2], 423.22 K	–	470.84	–
